Experimental data: US11618749B2, “Compounds and compositions for treating conditions associated with STING activity” (IFM Due, Inc., priority 2018, dated 2023)

Target: T1, hSTING (Homo sapiens, UniProt Q86WV6, G230A/H232R/R293Q/R71H)
T1 construct: host or cells: THP1-Dual KO-IFNAR2 cells
Experiment: STING reporter assay (luciferase reporter) in THP1-Dual KO-IFNAR2 cells activated with 2′3′cGAMP
Format: cell-based
Conditions: 15 μM 2′3′cGAMP, 24 h, luciferase reporter activity
Experimental: STING pathway activation by the compounds described herein is measured using THP1-Dual™ cells (KO-IFNAR2).
THP1-Dual™ KO-IFNAR2 Cells (obtained from invivogen) are maintained in RPMI, 10% FCS, 5 ml P/S, 2 mM L-glut, 10 mM Hepes, and 1 mM sodium pyruvate. Compounds are spotted in empty 384 well tissue culture plates (Greiner 781182) by Echo for a final concentration of […]. Cells are plated into the TC plates at 40 μL per well, 2×10E6 cells/mL. For activation with STING ligand, 2′3′cGAMP (MW 718.38, obtained from Invivogen), is prepared in Optimem media.
The following solutions are prepared for each 1×384 plate: • Solution A: 2 mL Optimem with one of the following stimuli: • 60 uL of 10 mM 2′3′cGAMP→150 μM stock • Solution B: 2 mL Optimem with 60 μL Lipofectamine 2000→Incubate 5 min at RT
2 mL of solution A and 2 ml Solution B is mixed and incubated for 20 min at room temperature (RT). 20 uL of transfection solution (A+B) is added on top of the plated cells, with a final 2′3′cGAMP concentration of 15 μM. The plates are then centrifuged immediately at 340 g for 1 minute, after which they are incubated at 37° C., 5% CO2, >98% humidity for 24 h. Luciferase reporter activity is then measured. EC50 values were calculated by using standard methods known in the art.
Luciferase Reporter Assay:
10 μL of supernatant from the assay is transferred to white 384-plate with flat bottom and squared wells. one pouch of QUANTI-Luc™ Plus is dissolved in 25 mL of water. 100 μL of QLC Stabilizer per 25 mL of QUANTI-Luc™ Plus solution was added. 50 μL of QUANTI-Luc™ Plus/QLC solution per well is then added. Luminescence is measured on a Platereader (e.g., Spectramax I3X (Molecular Devices GF3637001)).
Luciferase reporter activity is then measured. EC50 values are calculated by using standard methods known in the art.

T1 sequence (Q86WV6 whole entry R71H/G230A/H232R/R293Q): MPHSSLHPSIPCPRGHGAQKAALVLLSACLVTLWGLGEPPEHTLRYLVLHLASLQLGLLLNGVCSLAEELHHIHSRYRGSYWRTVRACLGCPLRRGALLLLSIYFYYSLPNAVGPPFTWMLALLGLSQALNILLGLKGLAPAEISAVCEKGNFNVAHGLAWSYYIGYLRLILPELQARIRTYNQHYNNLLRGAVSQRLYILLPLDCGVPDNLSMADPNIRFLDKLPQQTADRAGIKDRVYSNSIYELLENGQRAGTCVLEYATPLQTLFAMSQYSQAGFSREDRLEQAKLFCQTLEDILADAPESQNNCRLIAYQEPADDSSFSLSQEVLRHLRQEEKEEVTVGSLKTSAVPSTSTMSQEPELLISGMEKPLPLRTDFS

| SMILES | EC50 |
| --- | --- |
| O=C(Nc1ccc(C(F)(F)F)nc1)Nc1c[nH]c2ncc(F)cc12 [Compound 281] | 1 to 5 µM |
| Cc1ccc2[nH]cc(NC(=O)Nc3ccc(C(F)(F)F)cc3)c2n1 [Compound 329] | 0.2 to 1 µM |
| O=C(Nc1ccc(F)cn1)Nc1c[nH]c2ncc(F)cc12 [Compound 280] | 1 to 5 µM |
| CCc1cnc(NC(=O)Nc2c[nH]c3ncccc23)s1 [Compound 168] | 5 to 100 µM |
| O=C(Nc1c[nH]c2cccnc12)NC1CC2CCC(C2)C1 (stereo not shown) [Compound 157] | 5 to 100 µM |
| CN(C)S(=O)(=O)c1cccc(-c2cnc3[nH]cc(NC(=O)Nc4ccc(C(F)(F)F)cc4)c3c2)c1 [Compound 204] | 1 to 5 µM |
| O=C(Nc1ccc(C(F)(F)F)cc1)Nc1c[nH]c2nccc(-c3cccnc3)c12 [Compound 189] | 5 to 100 µM |
| O=C(Nc1ccc(C(F)(F)F)cc1)Nc1c[nH]c2ncc(C3=CCOCC3)cc12 [Compound 212] | 1 to 5 µM |
| O=C(Nc1ccc(C(F)(F)F)cc1)Nc1c[nH]c2c(Cl)ncnc12 [Compound 183] | 5 to 100 µM |
| CCCCc1cccc(NC(=O)Nc2c[nH]c3ncc(F)cc23)c1 [Compound 274] | 0.04 to 0.2 µM |
| O=C(Nc1ccc(C2CCCCC2)cn1)Nc1c[nH]c2cccnc12 [Compound 326] | 0.2 to 1 µM |
| O=C(Nc1ncc(-c2ccccc2)s1)Nc1c[nH]c2ncc(F)cc12 [Compound 293] | 0.2 to 1 µM |
| O=C(Nc1ccc(C(F)(F)F)cc1)Nc1c[nH]c2cnc(-c3ccccc3)nc12 [Compound 180] | 5 to 100 µM |
| N#Cc1cnc2[nH]cc(NC(=O)Nc3ccc(C(F)(F)F)cc3)c2c1 [Compound 151] | 0.2 to 1 µM |
| O=C(Nc1cc(F)cc(F)c1)Nc1c[nH]c2ncc(F)cc12 [Compound 298] | 1 to 5 µM |
| O=C(Nc1ccc(C2CCC2)c(F)c1)Nc1c[nH]c2ncc(F)cc12 [Compound 250] | 0.2 to 1 µM |
| O=C(Nc1ccc(C(F)(F)F)cc1)Nc1c[nH]c2cccnc12 [Compound 146] | 1 to 5 µM |
| O=C(Nc1c[nH]c2ncccc12)N1CCCc2ccccc21 [Compound 301] | 5 to 100 µM |
| CCCCC1CCN(C(=O)Nc2c[nH]c3ncc(F)cc23)CC1 [Compound 294] | 5 to 100 µM |
| O=C(Nc1c[nH]c2ccc(-c3ccccc3)nc12)NC1CCC(C(F)(F)F)CC1 (stereo not shown) [Compound 335] | 1 to 5 µM |
| O=C(Nc1cc(F)cc(F)c1)Nc1c[nH]c2ncccc12 [Compound 299] | 5 to 100 µM |
| CCCCC1CCC(N/C(=N\C#N)Nc2c[nH]c3cccnc23)CC1 (stereo not shown) [Compound 336] | 0.2 to 1 µM |
| O=C(Nc1c[nH]c2ncc(F)cc12)NC1CCC2(CCC2)CC1 [Compound 247] | 1 to 5 µM |
| O=S(=O)(Nc1ccc(C(F)(F)F)cc1)Nc1c[nH]c2ncc(F)cc12 [Compound 337] | 5 to 100 µM |
| CC(NC(=O)Nc1c[nH]c2ncc(F)cc12)c1ccc2c(c1)OCCO2 (stereo not shown) [Compound 279] | 5 to 100 µM |

| SMILES | EC50 |
| --- | --- |
| O=C(Nc1c[nH]c2ncc(F)cc12)NC1CCC2(CCCCC2)CC1 [Compound 300] | 0.2 to 1 µM |
| CCCCC1CCC(NC(=O)Nc2c[nH]c3cnccc23)CC1 (stereo not shown) [Compound 314] | 1 to 5 µM |
| CN(C(=O)Nc1c[nH]c2cccnc12)c1ccc(C(F)(F)F)cc1 [Compound 154] | 5 to 100 µM |
| CCCCc1ccc(N(C)C(=O)Nc2c[nH]c3ncc(F)cc23)cc1 [Compound 246] | 1 to 5 µM |
| O=C(Nc1ccc(C(F)(F)F)cc1)Nc1c[nH]c2c(F)cncc12 [Compound 165] | 0.2 to 1 µM |
| O=C(Nc1ccc(C(F)(F)F)cn1)Nc1c[nH]c2ncc(F)cc12 [Compound 138] | 0.2 to 1 µM |
| CC(C)n1cc(-c2ccnc3[nH]cc(NC(=O)Nc4ccc(C(F)(F)F)cc4)c23)cn1 [Compound 186] | 5 to 100 µM |
| O=C(Nc1ccc(C(F)(F)F)cc1)Nc1c[nH]c2ncc(-c3ccc(OCC4CC4)nc3)cc12 [Compound 211] | 0.2 to 1 µM |
| O=C(Nc1ccc(C2CCCCC2)nc1)Nc1c[nH]c2ccncc12 [Compound 315] | 1 to 5 µM |
| CCCCC1CCC(NC(=O)Nc2c[nH]c3cccnc23)CC1 (stereo not shown) [Compound 322] | 1 to 5 µM |
| O=C(Nc1ccc(C(F)(F)F)cc1)Nc1c[nH]c2nccc(C3=CCOCC3)c12 [Compound 203] | 5 to 100 µM |
| O=C(Nc1ccc(C2CCCCC2)nc1)Nc1c[nH]c2ncccc12 [Compound 263] | 0.2 to 1 µM |
| O=C(Nc1c[nH]c2ncccc12)N1CCCC(c2ccccc2)C1 (stereo not shown) [Compound 307] | 5 to 100 µM |
| O=C(Nc1ccc(C(F)(F)F)cc1)Nc1c[nH]c2cc(F)cnc12 [Compound 330] | 1 to 5 µM |
| O=C(Nc1c[nH]c2ncc(F)cc12)NC1CCC2(CC1)CC2 [Compound 305] | 1 to 5 µM |
| O=C(Nc1c[nH]c2ncccc12)N1CCc2ccccc21 [Compound 303] | 5 to 100 µM |
| C#Cc1cccc(NC(=O)Nc2c[nH]c3ncc(F)cc23)c1 [Compound 251] | 0.2 to 1 µM |
| O=C(Nc1ccc2ccncc2c1)Nc1c[nH]c2ncc(F)cc12 [Compound 287] | 1 to 5 µM |
| CC(c1ccc(-c2ccnc3[nH]cc(NC(=O)Nc4ccc(C(F)(F)F)cc4)c23)cc1)N(C)C (stereo not shown) [Compound 192] | 5 to 100 µM |
| O=C(Nc1ccc(C(F)(F)F)cc1)Nc1c[nH]c2ccc(-c3ccccc3)nc12 [Compound 328, 1-(5-phenyl-1H-pyrrolo[3,2-b]pyridin-3-yl)-3-(4-(trifluoromethyl)phenyl)urea] | 5 to 100 µM |
| O=C(Nc1ccc(C(F)(F)F)cc1)Nc1c[nH]c2ncc(C3CCCCC3)cc12 [Compound 267, 3-[5-cyclohexyl-1H-pyrrolo[2,3-b]pyridin-3-yl]-1-[4-(trifluoromethyl)phenyl] urea] | 1 to 5 µM |
| CCc1ccc(CNC(=O)Nc2c[nH]c3ncccc23)cc1 [Compound 171] | 5 to 100 µM |
| C#Cc1cnc2[nH]cc(NC(=O)Nc3ccc(C(F)(F)F)cc3)c2c1 [Compound 258, 1-(5-ethynyl-1H-pyrrolo[2,3-b]pyridin-3-yl)-3-(4-(trifluoromethyl)phenyl)urea] | 0.2 to 1 µM |
| O=C(Nc1ccc(C(F)(F)F)cc1)Nc1c[nH]c2ccncc12 [Compound 145] | 0.2 to 1 µM |
| O=C(Nc1ccc(C2CCCCC2)nc1)Nc1c[nH]c2cnccc12 [Compound 312] | 1 to 5 µM |

| SMILES | EC50 |
| --- | --- |
| O=C(Nc1c[nH]c2ncc(F)cc12)NC1CCC(Cc2ccccc2)CC1 (stereo not shown) [Compound 248] | 0.2 to 1 µM |
| O=C(Nc1ccc(C(F)(F)F)cn1)Nc1c[nH]c2ccncc12 [Compound 319] | 1 to 5 µM |
| O=C(Nc1c[nH]c2ncccc12)NC1CC2CCC(C2)C1 (stereo not shown) [Compound 160] | 5 to 100 µM |
| CCCCc1ncc(NC(=O)Nc2c[nH]c3ncc(F)cc23)cc1F [Compound 255] | 0.2 to 1 µM |
| CC(C)(O)c1cccc(-c2cnc3[nH]cc(NC(=O)Nc4ccc(C(F)(F)F)cc4)c3c2)c1 [Compound 215] | 1 to 5 µM |
| O=C(Nc1c[nH]c2ncc(F)cc12)NC1CCN(CC(F)(F)F)CC1 [Compound 252] | 5 to 100 µM |
| CCCCc1ccc(N(CC)C(=O)Nc2c[nH]c3ncc(F)cc23)cc1 [Compound 245] | 5 to 100 µM |
| O=C(Nc1ccc(C2CCCCC2)nc1)Nc1c[nH]c2ncc(F)cc12 [Compound 272] | 0.04 to 0.2 µM |
| O=C(Nc1c[nH]c2ncccc12)NC1CCc2ccccc2C1 (stereo not shown) [Compound 136] | 5 to 100 µM |
| O=C(Nc1cccc(C(F)(F)F)c1)Nc1c[nH]c2cnccc12 [Compound 149] | 5 to 100 µM |
| CCCCC1CCN(C(=O)Nc2c[nH]c3cccnc23)CC1 [Compound 140] | 1 to 5 µM |
| O=C(Nc1cccc(C(F)(F)F)c1)Nc1c[nH]c2cccnc12 [Compound 332] | 1 to 5 µM |
| COc1nccc2[nH]cc(NC(=O)Nc3ccc(C(F)(F)F)cc3)c12 [Compound 320, 1-(4-methoxy-1H-pyrrolo[3,2-c]pyridin-3-yl)-3-(4-(trifluoromethyl)phenyl)urea] | 5 to 100 µM |
| CCc1ccc(NC(=O)Nc2c[nH]c3ncncc23)cc1 [Compound 183b] | 5 to 100 µM |
| CC(c1ccc(-c2cnc3[nH]cc(NC(=O)Nc4ccc(C(F)(F)F)cc4)c3c2)cc1)N(C)C (stereo not shown) [Compound 196] | 5 to 100 µM |
| Cc1cnc2[nH]cc(NC(=O)Nc3ccc(C(F)(F)F)cc3)c2c1 [Compound 163] | 0.2 to 1 µM |
| O=C(Nc1ccc(C2CCCCC2)cn1)Nc1c[nH]c2ncccc12 [Compound 264] | 0.2 to 1 µM |
| O=C(Nc1c[nH]c2ncccc12)NC1CC(c2ccccc2)C1 (stereo not shown) [Compound 133] | 5 to 100 µM |
| O=C(Nc1c[nH]c2ccncc12)NC1CC2CCC(C2)C1 (stereo not shown) [Compound 161] | 5 to 100 µM |
| COc1ccc(F)c(F)c1-c1cnc2[nH]cc(NC(=O)Nc3ccc(C(F)(F)F)cc3)c2c1 [Compound 214] | 5 to 100 µM |
| O=C(Nc1ccc(C(F)(F)F)cc1)Nc1c[nH]c2ncc(-c3ccc(N4CCOCC4)nc3)cc12 [Compound 188] | 5 to 100 µM |
| CCCCC1CCC(NC(=O)Nc2c[nH]c3ncccc23)C1 (stereo not shown) [Compound 285] | 1 to 5 µM |
| O=C(Nc1c[nH]c2ncccc12)NC1CCCC(c2ccccc2)C1 (stereo not shown) [Compound 304] | 5 to 100 µM |
